Data taken from article PMC6925622 (Clinical pharmacology and therapeutics, 2019).
≈ marks a conversion by molar mass, not a printed value. Where “and” joins values, the source holds several entries; their conditions need not be identical. Equal entries are not always repeated.

Tests used:
[1] = system: CYP3A5 and CYP3A4; settings: preferentially inhibits CYP3A4; cited from earlier work
[2] = system: CYP3A5; settings: cited from earlier work
[3] = system: CYP3A4/5; test: Clinical midazolam-ketoconazole interaction study; type: in vivo, human; settings: for CLpo (oral clearance) / Cmax /Dose: oral midazolam
[4] = system: CYP3A4; settings: midazolam is the CYP3A probe, cited from earlier work
[5] = system: CYP3A5; settings: midazolam is the CYP3A probe, cited from earlier work
[6] = Clinical study control phase: midazolam pharmacokinetics by CYP3A5 genotype; type: in vivo, human; settings: for Clearance Oral GM (90% CI): Observed, single dose of midazolam, blood clearance; for clearance: iv, 0.05 mg/kg, CLsys (systemic clearance), IV midazolam; for clearance / bioavailability / Tmax / half-life / CLpo (oral clearance) / Cmax /Dose: midazolam alone (control); for bioavailability: Fpo (oral bioavailability); for Tmax / CLpo (oral clearance) / Cmax /Dose: oral midazolam; for half-life: t1/2 (terminal half-life); for intestinal availability (FG): midazolam alone
[7] = cited from earlier work
[8] = human, serum, geometric mean, CYP3A5*1/*1 (n=6)
[9] = human, serum, geometric mean, CYP3A5*1/*3 and *1/*6 (n=9)
[10] = human, serum, geometric mean, CYP3A5*3/*3 non-expressers (n=8)
[11] = human, serum, geometric mean, CYP3A5 expressers (n=15)
[12] = human, serum, CYP3A5*3/*7 (n=1)
[13] = geometric mean, CYP3A5*1/*1 (n=6)
[14] = geometric mean, CYP3A5*1/*3 and *1/*6 (n=9)
[15] = geometric mean, CYP3A5 expressers (n=15)
[16] = after 200 mg KTZ, CYP3A5*3/*7 (n=1)
[17] = after 400 mg KTZ, CYP3A5*3/*7 (n=1)
[18] = geometric mean, after 200 mg KTZ, CYP3A5*3/*3 non-expressers
[19] = geometric mean, after 200 mg KTZ, CYP3A5 expressers
[20] = geometric mean, after 400 mg KTZ, CYP3A5*1/*1
[21] = geometric mean, after 400 mg KTZ, CYP3A5*1/*3 and *1/*6
[22] = geometric mean, after 400 mg KTZ, CYP3A5*3/*3 non-expressers
[23] = geometric mean, after 400 mg KTZ, CYP3A5 expressers

Question: For `CCC(C)n1ncn(-c2ccc(N3CCN(c4ccc(OCC5COC(Cn6cncn6)(c6ccc(Cl)cc6Cl)O5)cc4)CC3)cc2)c1=O` (centres unmarked) [Itraconazole], which “Ki,3A5/Ki,3A4” value [1] is on record?
Answer: ≥ 7

Question: Which “changes of midazolam metabolites formation across CYP3A5 genotypes” value [2] does the source give for `OC(Cn1cncn1)(Cn1cncn1)c1ccc(F)cc1F` [fluconazole] here?
Answer: did not result in differential changes

Question: Which results are given for `CC(=O)N1CCN(c2ccc(OCC3COC(Cn4ccnc4)(c4ccc(Cl)cc4Cl)O3)cc2)CC1` (centres unmarked) [ketoconazole]?
Answer: difference in the AUC0–10hr of ketoconazole between the 6th and 7th day of dosing ([3]; ketoconazole 200 mg or 400 mg): no significant difference; inhibition of gut CYP3A ([3]; ketoconazole 200 and 400 mg doses): almost complete inhibition; Ki towards CYP3A4 [4]: […]; Ki ([4]; read-out: Ki towards CYP3A4): […]; Ki towards CYP3A5 [5]: […]; Ki ([5]; read-out: Ki towards CYP3A5): […]

Question: Which “Clearance Oral GM (90% CI)” value ([6]; CYP3A5 expressers) does the source give for `Cc1ncc2n1-c1ccc(Cl)cc1C(c1ccccc1F)=NC2` [midazolam] here?
Answer: 140 (114.5–171.3) L/hr

Question: What about the “Clearance Oral GM (90% CI)” value ([6]; CYP3A5 non-expressers) of the same compound?
Answer: 105 (83.5–131.5) L/hr

Question: What about the clearance [6, 8] of the same compound?
Answer: 540 mL/min

Question: What about the clearance [6, 9] of the same compound?
Answer: 550 mL/min

Question: And the clearance [6, 10]?
Answer: 402 mL/min

Question: And the clearance [6, 11]?
Answer: 547 mL/min

Question: And the clearance [6, 12]?
Answer: 318 mL/min

Question: And the bioavailability ([6]; human, serum, po, 4 mg, geometric mean, CYP3A5*1/*1 (n=6))?
Answer: 22%

Question: And the bioavailability ([6]; human, serum, po, 4 mg, geometric mean, CYP3A5*1/*3 and *1/*6 (n=9))?
Answer: 23%

Question: What about the bioavailability ([6]; human, serum, po, 4 mg, geometric mean, CYP3A5*3/*3 non-expressers (n=8)) of the same compound?
Answer: 26%

Question: And the bioavailability ([6]; human, serum, po, 4 mg, geometric mean, CYP3A5 expressers (n=15))?
Answer: 23%

Question: What about the bioavailability ([6]; human, serum, po, 4 mg, CYP3A5*3/*7 (n=1)) of the same compound?
Answer: 36%

Question: What about the Tmax ([6]; human, serum, po, 4 mg, Tmax, CYP3A5*3/*7 (n=1)) of the same compound?
Answer: 1 h

Question: And the half-life [6, 8]?
Answer: 2.76 h

Question: And the half-life [6, 9]?
Answer: 2.75 h

Question: And the half-life [6, 10]?
Answer: 3.05 h

Question: What about the half-life [6, 11] of the same compound?
Answer: 2.75 h

Question: And the half-life [6, 12]?
Answer: 5.25 h

Question: And the “intestinal availability (FG)” value ([6]; CYP3A5 expressers)?
Answer: 0.35±0.09

Question: What about the “intestinal availability (FG)” value ([6]; CYP3A5 non-expressers) of the same compound?
Answer: 0.33±0.06

Question: What about the “CLpo (oral clearance)” value [6, 13] of the same compound?
Answer: 144 L/h

Question: And the “Cmax /Dose” value [6, 13]?
Answer: 1.5 ng/mL

Question: And the “CLpo (oral clearance)” value [6, 14]?
Answer: 137 L/h

Question: And the “Cmax /Dose” value [6, 14]?
Answer: 1.6 ng/mL

Question: What about the “CLpo (oral clearance)” value [6, 15] of the same compound?
Answer: 140 ± 66 L/h and 140 L/h

Question: And the “Cmax /Dose” value [6, 15]?
Answer: 1.6 ± 0.6 ng/mL and 1.6 ng/mL

Question: What about the “CLpo (oral clearance)” value ([6]; CYP3A5*3/*7 (n=1)) of the same compound?
Answer: 55.7 L/h

Question: And the “Cmax /Dose” value ([6]; CYP3A5*3/*7 (n=1))?
Answer: 3.4 ng/mL

Question: And the Tmax ([6]; CYP3A5 expressers (n=15))?
Answer: 0.7 h

Question: What about the “inter-individual variability for the CLsys” value ([6]; this study) of the same compound?
Answer: 2.3 fold

Question: And the “inter-individual variability of CLpo” value ([6]; this study)?
Answer: 7.0 fold

Question: What about the “CLpo (oral clearance)” value [3, 16] of the same compound?
Answer: 4.6 L/h

Question: What about the “Cmax /Dose” value [3, 16] of the same compound?
Answer: 18.1 ng/mL

Question: And the “CLpo (oral clearance)” value [3, 17]?
Answer: 2.7 L/h

Question: And the “Cmax /Dose” value [3, 17]?
Answer: 21.2 ng/mL

Question: And the “Cmax /Dose” value ([3]; geometric mean, after 200 mg KTZ, CYP3A5*1/*1)?
Answer: 9.6 ng/mL

Question: And the “Cmax /Dose” value ([3]; geometric mean, after 200 mg KTZ, CYP3A5*1/*3 and *1/*6)?
Answer: 7.9 ng/mL

Question: What about the “CLpo (oral clearance)” value [3, 18] of the same compound?
Answer: 7.0 ± 2.0 L/h and 7.0 L/h

Question: And the “Cmax /Dose” value [3, 18]?
Answer: 12.3 ng/mL

Question: And the “CLpo (oral clearance)” value [3, 19]?
Answer: 13.3 ± 5.6 L/h

Question: What about the “Cmax /Dose” value [3, 19] of the same compound?
Answer: 8.5 ng/mL

Question: And the “CLpo (oral clearance)” value [3, 20]?
Answer: 8.2 L/h

Question: And the “Cmax /Dose” value [3, 20]?
Answer: 9.4 ng/mL

Question: What about the “CLpo (oral clearance)” value [3, 21] of the same compound?
Answer: 8.6 L/h

Question: What about the “Cmax /Dose” value [3, 21] of the same compound?
Answer: 8.9 ng/mL

Question: What about the “CLpo (oral clearance)” value [3, 22] of the same compound?
Answer: 4.9 ± 1.3 L/h and 4.9 L/h

Question: And the “Cmax /Dose” value [3, 22]?
Answer: 15.8 ng/mL

Question: And the “CLpo (oral clearance)” value [3, 23]?
Answer: 8.4 ± 3.5 L/h and 8.4 L/h

Question: And the “Cmax /Dose” value [3, 23]?
Answer: 9.1 ng/mL

Question: What about the “midazolam FG in SimCYP” value ([7]; derived using plasma clearance and hepatic plasma flow) of the same compound?
Answer: 0.57

Question: And the “inter-individual variability of midazolam clearance in other studies” value ([7]; other studies)?
Answer: 3.3- to 5.2 fold
